Key:
[1] = test system: fresh rat blood; assay: anticoagulation activity in fresh rat blood, microtiter plate, visual evaluation of serum separation; format: biochemical; conditions: citrated fresh rat blood, CaCl2-initiated, 15 minutes at room temperature; for anticoagulation activity: judged against 20 U/mg standard
Protocol: Anticoagulation activity of sulfated cyclic oligosaccharide
Sulfated CI-8 was examined for its anticoagulation activity. 1% aqueous sulfated CI-8 solution obtained by dissolving 10 mg of sulfated CI-8 sodium in 1 ml de-ionized water was diluted at various concentrations with 0.85% sterilized NaCl solution (physiological saline) to prepare sulfated CI-8 solutions at various concentrations. Solutions of dextran 5000 sodium sulfate (Wako Pure Chemical Industries, Ltd.) at various concentrations were also prepared in the same manner. Standard solutions at various concentrations were prepared using dextran sodium sulfate having 20 U/mg anticoagulation activity (a gift from Meito Sangyo K. K.).
40 μl each of the aqueous solutions were put to each well on a 96-well microtiter plate. Then, 50 μof fresh rat blood containing 0.38% trisodium citrate was put to each well and mixed. Further, 10 μl of 2% aqueous CaCl2 solution and mixed whereby blood-coagulation reaction was initiated. The plate was left at room temperature for 15 minutes and centrifuged at 2000 rpm for 10 minutes, and the separation of the serum in each well was visually evaluated. As a result, the anticoagulation activity of sulfated CI-8 was judged to be about 1/2 relative to the known dextran sodium sulfate, so its activity was judged to be about […]. The activity of dextran 5000 sodium sulfate was judged to be about 40 U/mg.

[2] = test system: fresh rat blood; conditions: stated activity of the standard substance (gift from Meito Sangyo K. K.); cited from earlier work
[3] = target: binding of gp120 to CD4 receptor (HIV-1 M:B_HXB2R, UniProt P04578); assay: inhibition of the binding of gp120 to CD4 receptor (drug discovery kit, duPont); conditions: concentration range of 0 to 100 mg/ml; FIG. 5
Protocol: Measurement of anti-HIV activity of sulfated CI-8
Sulfated CI-8 obtained above in Example 1 was examined for the activity of inhibiting the binding of gp120 to CD4 receptor in the concentration range of […] using a drug discovery kit (duPont).

Question: Which anticoagulation activity [1] does the source give for “dextran 5000 sodium sulfate [reference compound]” here?
Answer: The anticoagulation activity was “about 40 U/mg”.

Question: For dextran sodium sulfate, which “anticoagulation activity of the standard” value [2] is on record?
Answer: The value was 20 U/mg.

Question: For “cyclic isomaltoctaose-heptadecyl-0-sulfate sodium salt [sulfated CI-8]”, which “activity of inhibiting the binding of gp120 to CD4 receptor” value [3] is on record?
Answer: The value was “inhibited the binding of pg120 to CD4 in proportion to its concentration”.

Question: And the anticoagulation activity [1]?
Answer: Its anticoagulation activity is “about 10 U/ml”.

Question: What about the “anticoagulation activity relative to the known dextran sodium sulfate” value ([1]; relative to 20 U/mg standard) of the same substance?
Answer: Its value is “about 1/2”.

— patent US6060597A, “Cyclic oligosaccharide, and an agent containing the same for preventing or treating retroviral diseases” (Kikkoman Corporation, priority 1997, dated 2000)
